Assay results reported in patent US9993494B2, “Compositions and methods for treating fibrotic disease” (eFFECTOR Therapeutics, Inc., priority 2014, dated 2018).

Tested on: normal human lung fibroblasts
Experiment: Ribosomal profiling: translational efficiency in TGFβ-treated fibroblasts
Assay type: cell-based
Conditions: TGFβ-treated fibroblasts
In short: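 Cells lysed on ice after a cold PBS wash containing cycloheximide. Ribosome-protected fragments and total mRNA were prepared with the ARTseq kit and sequenced by RNA-Seq. Reads were trimmed, mapped to the human genome and counted uniquely over coding regions per gene, with low-count genes excluded before differential translational-efficiency analysis.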

## Cc1ccc(=O)n(-c2ccccc2)c1 [pirfenidone, 5-methyl-1-phenylpyridin-2-one]
Gene RPS6KA5 (ENSG00000100784)
  effect in renormalizing the translational profile of the gene: − (− = <0.9)
Gene RPS7 (ENSG00000171863)
  effect in renormalizing the translational profile of the gene: − (− = <0.9)
Gene RPS8 (ENSG00000142937)
  effect in renormalizing the translational profile of the gene: + (+ = 0.9 to 1.5)
Gene RPS9 (ENSG00000170889)
  effect in renormalizing the translational profile of the gene: + (+ = 0.9 to 1.5)
Gene RPS10 (ENSG00000124614)
  effect in renormalizing the translational profile of the gene: + (+ = 0.9 to 1.5)
Gene RPS11 (ENSG00000142534)
  effect in renormalizing the translational profile of the gene: − (− = <0.9)
Gene RPS12 (ENSG00000112306)
  effect in renormalizing the translational profile of the gene: − (− = <0.9)
Gene RPS13 (ENSG00000110700)
  effect in renormalizing the translational profile of the gene: − (− = <0.9)
Gene RPS14 (ENSG00000164587)
  effect in renormalizing the translational profile of the gene: − (− = <0.9)
Gene RPS15 (ENSG00000115268)
  effect in renormalizing the translational profile of the gene: + (+ = 0.9 to 1.5)
Gene RPS15A (ENSG00000134419)
  effect in renormalizing the translational profile of the gene: + (+ = 0.9 to 1.5)
Gene RPS16 (ENSG00000105193)
  effect in renormalizing the translational profile of the gene: + (+ = 0.9 to 1.5)
Gene RPS18 (ENSG00000231500)
  effect in renormalizing the translational profile of the gene: + (+ = 0.9 to 1.5)
Gene RPS19 (ENSG00000105372)
  effect in renormalizing the translational profile of the gene: + (+ = 0.9 to 1.5)
Gene RPS20 (ENSG00000008988)
  effect in renormalizing the translational profile of the gene: − (− = <0.9)
Gene RPS21 (ENSG00000171858)
  effect in renormalizing the translational profile of the gene: − (− = <0.9)
Gene RPS23 (ENSG00000186468)
  effect in renormalizing the translational profile of the gene: − (− = <0.9)
Gene RPS24 (ENSG00000138326)
  effect in renormalizing the translational profile of the gene: − (− = <0.9)
Gene RPS25 (ENSG00000118181)
  effect in renormalizing the translational profile of the gene: − (− = <0.9)
Gene RPS26 (ENSG00000197728)
  effect in renormalizing the translational profile of the gene: − (− = <0.9)
Gene RPS27 (ENSG00000177954)
  effect in renormalizing the translational profile of the gene: + (+ = 0.9 to 1.5)
Gene RPS27A (ENSG00000143947)
  effect in renormalizing the translational profile of the gene: − (− = <0.9)
Gene RPS28 (ENSG00000233927)
  effect in renormalizing the translational profile of the gene: + (+ = 0.9 to 1.5)
Gene RPS29 (ENSG00000213741)
  effect in renormalizing the translational profile of the gene: + (+ = 0.9 to 1.5)
Gene RPSA (ENSG00000168028)
  effect in renormalizing the translational profile of the gene: − (− = <0.9)
Gene RTN2 (ENSG00000125744)
  effect in renormalizing the translational profile of the gene: − (− = <0.9)
Gene SEMA3A (ENSG00000075213)
  effect in renormalizing the translational profile of the gene: − (− = <0.9)
Gene SGIP1 (ENSG00000118473)
  effect in renormalizing the translational profile of the gene: − (− = <0.9)
Gene SH3BGR (ENSG00000185437)
  effect in renormalizing the translational profile of the gene: − (− = <0.9)
Gene SHC3 (ENSG00000148082)
  effect in renormalizing the translational profile of the gene: − (− = <0.9)
Gene SLC2A12 (ENSG00000146411)
  effect in renormalizing the translational profile of the gene: − (− = <0.9)
Gene SLC7A7 (ENSG00000155465)
  effect in renormalizing the translational profile of the gene: − (− = <0.9)
Gene SLC15A3 (ENSG00000110446)
  effect in renormalizing the translational profile of the gene: − (− = <0.9)
Gene SLC25A6 (ENSG00000169100)
  effect in renormalizing the translational profile of the gene: + (+ = 0.9 to 1.5)
Gene SLC40A1 (ENSG00000138449)
  effect in renormalizing the translational profile of the gene: ++ (++ = 1.5 to 2.0)
Gene SMO (ENSG00000128602)
  effect in renormalizing the translational profile of the gene: − (− = <0.9)
Gene SNRPA (ENSG00000077312)
  effect in renormalizing the translational profile of the gene: − (− = <0.9)
Gene SOX5 (ENSG00000134532)
  effect in renormalizing the translational profile of the gene: − (− = <0.9)
Gene SOX6 (ENSG00000110693)
  effect in renormalizing the translational profile of the gene: + (+ = 0.9 to 1.5)
Gene SPATA6 (ENSG00000132122)
  effect in renormalizing the translational profile of the gene: + (+ = 0.9 to 1.5)
Gene STAMBPL1 (ENSG00000138134)
  effect in renormalizing the translational profile of the gene: + (+ = 0.9 to 1.5)
Gene STS (ENSG00000101846)
  effect in renormalizing the translational profile of the gene: + (+ = 0.9 to 1.5)
Gene SYNE2 (ENSG00000054654)
  effect in renormalizing the translational profile of the gene: − (− = <0.9)
Gene TAF1D (ENSG00000166012)
  effect in renormalizing the translational profile of the gene: + (+ = 0.9 to 1.5)
Gene TDG (ENSG00000139372)
  effect in renormalizing the translational profile of the gene: − (− = <0.9)
Gene TEN1 (ENSG00000257949)
  effect in renormalizing the translational profile of the gene: − (− = <0.9)
Gene TET2 (ENSG00000168769)
  effect in renormalizing the translational profile of the gene: − (− = <0.9)
Gene TET3 (ENSG00000187605)
  effect in renormalizing the translational profile of the gene: − (− = <0.9)
Gene TGFBI (ENSG00000120708)
  effect in renormalizing the translational profile of the gene: − (− = <0.9)
Gene THBS3 (ENSG00000169231)
  effect in renormalizing the translational profile of the gene: + (+ = 0.9 to 1.5)
Gene THG1L (ENSG00000113272)
  effect in renormalizing the translational profile of the gene: − (− = <0.9)
Gene TIMM9 (ENSG00000100575)
  effect in renormalizing the translational profile of the gene: − (− = <0.9)
Gene TKT (ENSG00000163931)
  effect in renormalizing the translational profile of the gene: + (+ = 0.9 to 1.5)
Gene TMTC1 (ENSG00000133687)
  effect in renormalizing the translational profile of the gene: − (− = <0.9)
Gene TOMM7 (ENSG00000196683)
  effect in renormalizing the translational profile of the gene: − (− = <0.9)
Gene TOP2A (ENSG00000131747)
  effect in renormalizing the translational profile of the gene: − (− = <0.9)
Gene TPGS1 (ENSG00000141933)
  effect in renormalizing the translational profile of the gene: − (− = <0.9)
Gene TPM2 (ENSG00000198467)
  effect in renormalizing the translational profile of the gene: − (− = <0.9)
Gene TPT1 (ENSG00000133112)
  effect in renormalizing the translational profile of the gene: − (− = <0.9)
Gene TRERF1 (ENSG00000124496)
  effect in renormalizing the translational profile of the gene: − (− = <0.9)
Gene UBA52 (ENSG00000221983)
  effect in renormalizing the translational profile of the gene: − (− = <0.9)
Gene UQCRB (ENSG00000156467)
  effect in renormalizing the translational profile of the gene: − (− = <0.9)
Gene UTRN (ENSG00000152818)
  effect in renormalizing the translational profile of the gene: − (− = <0.9)
Gene VIM (ENSG00000026025)
  effect in renormalizing the translational profile of the gene: − (− = <0.9)
Gene ZNF581 (ENSG00000171425)
  effect in renormalizing the translational profile of the gene: − (− = <0.9)
Gene ZNF608 (ENSG00000168916)
  effect in renormalizing the translational profile of the gene: − (− = <0.9)
